Experimental data published in DBAASP.
In brackets after ≈: the same amount, converted by molar mass.

Experiments:
Assay in all cases: ≥ marks a high value that may be exact or a test limit, other limits are often not marked, values filed in µg/mL are converted to µM
Escherichia coli 078 = system: Escherichia coli 078
[1] = system: Escherichia coli ATCC 25922
Escherichia coli UB1005 = system: Escherichia coli UB1005
[2] = system: Lacticaseibacillus rhamnosus 7469
[3] = system: Pseudomonas aeruginosa ATCC 27853
[4] = system: Salmonella enterica subsp. enterica serovar Pullorum ATCC 7913
[5] = system: Salmonella enterica subsp. enterica serovar Typhimurium ATCC 14028
[6] = system: Salmonella enterica subsp. enterica serovar Typhimurium C77-31
[7] = system: Staphylococcus aureus ATCC 25923
[8] = system: Staphylococcus aureus ATCC 29213
[9] = system: Staphylococcus epidermidis ATCC 12228
[10] = system: Streptococcus agalactiae CICC 10465
Streptococcus agalactiae = system: Streptococcus agalactiae
[11] = system: Streptococcus thermophilus YM-C
[12] = system: Mannheimia haemolytica 82-25
Aeromonas salmonicida = system: Aeromonas salmonicida
[13] = system: Pseudomonas aeruginosa K799
[14] = system: Pseudomonas aeruginosa Z61
[15] = system: Salmonella enterica serovar typhimurium MS7953s
[16] = system: Salmonella enterica subsp. enterica serovar Typhimurium ATCC 14028s
[17] = system: Staphylococcus epidermidis C621
Vibrio anguillarum = system: Vibrio anguillarum
[18] = system: Acinetobacter baumannii ATCC 19606
[19] = system: Escherichia coli D31 CGSC 5165
[20] = system: Pseudomonas aeruginosa ATCC 47085
[21] = system: Staphylococcus aureus ATCC 35556
[22] = system: Cutibacterium acnes ATCC 11827
[23] = system: Cutibacterium acnes ATCC 6919
Cutibacterium acnes = system: Cutibacterium acnes
[24] = system: Staphylococcus aureus ATCC 2592
[25] = system: Staphylococcus epidermidis 09A3726
[26] = system: Staphylococcus epidermidis 09B2490

CC[C@H](C)[C@H](NC(=O)[C@H](CC(C)C)NC(=O)[C@@H](NC(=O)[C@@H](N)CC(=O)O)[C@@H](C)CC)C(=O)N[C@H](C(=O)N[C@H](C(=O)NCC(=O)NCC(=O)NCC(=O)N[C@@H](CO)C(=O)NCC(=O)N[C@@H](CCCCN)C(=O)N[C@@H](CCC(=O)O)C(=O)N[C@@H](CCCN=C(N)N)C(=O)N[C@@H](CCCCN)C(=O)N[C@@H](CCCCN)C(=O)N[C@@H](CCCN=C(N)N)C(=O)N[C@@H](CCCN=C(N)N)C(=O)N[C@@H](CCCN=C(N)N)C(N)=O)C(C)C)[C@@H](C)CC [DILIIVGGGSGKERKKRRR]
MIC (Escherichia coli 078): ≥ 64 µM
MIC [1]: > 64 µM
MIC (Escherichia coli UB1005): ≥ 64 µM
MIC [2]: ≥ 64 µM
MIC [3]: > 64 µM
MIC [4]: ≥ 64 µM
MIC [5]: > 64 µM
MIC [6]: ≥ 64 µM
MIC [7]: > 64 µM
MIC [8]: > 64 µM
MIC [9]: > 64 µM
MIC [10]: 4 µM (≈ 8.55 µg/mL)
MIC (Streptococcus agalactiae): 4 µM (≈ 8.55 µg/mL)
MIC [11]: ≥ 64 µM

C[C@H](NC(=O)CN)C(=O)N[C@@H](CC(=O)O)C(=O)N[C@@H](CC(=O)O)C(=O)N[C@@H](CC(=O)O)C(=O)N[C@@H](CC(=O)O)C(=O)N[C@@H](CC(=O)O)C(=O)O [GADDDDD]
MIC [12]: 30 µM (≈ 21.6 µg/mL)

CC(C)C[C@H](NC(=O)[C@H](Cc1ccc(O)cc1)NC(=O)[C@H](Cc1cnc[nH]1)NC(=O)[C@@H](NC(=O)[C@H](CC(C)C)NC(=O)[C@H](C)NC(=O)[C@H](C)NC(=O)[C@H](CCCCN)NC(=O)CNC(=O)[C@@H](NC(=O)[C@H](Cc1cnc[nH]1)NC(=O)[C@H](CCCCN)NC(=O)CNC(=O)[C@@H](NC(=O)[C@H](Cc1cnc[nH]1)NC(=O)[C@H](C)NC(=O)[C@H](C)NC(=O)[C@H](CCCCN)NC(=O)[C@H](CCCCN)NC(=O)[C@H](Cc1ccccc1)NC(=O)[C@H](Cc1ccccc1)NC(=O)[C@H](CO)NC(=O)CNC(=O)[C@H](Cc1c[nH]c2ccccc12)NC(=O)CNC(=O)[C@@H](N)CCCCN)C(C)C)C(C)C)[C@@H](C)O)C(N)=O [KGWGSFFKKAAHVGKHVGKAALTHYL]
MIC (Aeromonas salmonicida): 0.352 µM (≈ 1 µg/mL)
MIC [13]: 0.704 µM (≈ 2 µg/mL)
MIC [14]: 0.704 µM (≈ 2 µg/mL)
MIC [15]: 0.176 µM (≈ 0.5 µg/mL)
MIC [16]: 0.704 µM (≈ 2 µg/mL)
MIC [17]: 0.704 µM (≈ 2 µg/mL)
MIC (Vibrio anguillarum): 0.704 µM (≈ 2 µg/mL)

CC[C@H](C)[C@H](NC(=O)[C@H](CCCCN)NC(=O)CNC(=O)[C@H](CC(C)C)NC(=O)[C@@H](NC(=O)[C@H](C)NC(=O)[C@H](CCCCN)NC(=O)CNC(=O)[C@H](C)NC(=O)CNC(=O)[C@H](CCCCN)NC(=O)[C@H](CCSC)NC(=O)[C@H](CCCCN)NC(=O)[C@@H](NC(=O)[C@H](Cc1c[nH]c2ccccc12)NC(=O)[C@H](CC(C)C)NC(=O)[C@H](CCCCN)NC(=O)[C@H](CCCCN)NC(=O)[C@H](CC(C)C)NC(=O)[C@@H](N)CC(C)C)[C@@H](C)O)C(C)C)C(=O)N[C@@H](CCCCN)C(=O)NCC(=O)N[C@@H](CC(C)C)C(=O)N[C@@H](CC(C)C)C(=O)O [LLKKLWTKMKGAGKAVLGKIKGLL]
MIC [18]: 0.94 µM (≈ 2.44 µg/mL)
MIC [19]: 1.88 µM (≈ 4.88 µg/mL)
MIC [20]: 3.75 µM (≈ 9.73 µg/mL)
MIC [21]: 3.75 µM (≈ 9.73 µg/mL)

CC(C)[C@H](N)C(=O)N[C@@H](CCCCN)C(=O)N[C@@H](CCCN=C(N)N)C(=O)N[C@@H](Cc1c[nH]c2ccccc12)C(=O)N[C@@H](CCCCN)C(=O)N[C@@H](CCCCN)C(=O)N[C@@H](Cc1c[nH]c2ccccc12)C(=O)N[C@@H](Cc1c[nH]c2ccccc12)C(=O)N[C@@H](CCCN=C(N)N)C(=O)N[C@@H](CCCCN)C(=O)N[C@@H](Cc1c[nH]c2ccccc12)C(=O)N[C@@H](CCCCN)C(=O)N[C@@H](CCCCN)C(=O)N[C@@H](Cc1c[nH]c2ccccc12)C(=O)N[C@H](C(N)=O)C(C)C [VKRWKKWWRKWKKWV]
MIC [22]: 0.269 µM (≈ 0.6 µg/mL)
MIC [23]: 0.269 µM (≈ 0.6 µg/mL)
MIC (Cutibacterium acnes): 0.269 µM (≈ 0.6 µg/mL)
MIC [24]: 1.03 µM (≈ 2.3 µg/mL)
MIC [25]: 2.11 µM (≈ 4.7 µg/mL)
MIC [26]: 1.03 µM (≈ 2.3 µg/mL)
